Experimental data published in PMC7311426, “An amphipathic peptide with antibiotic activity against multidrug-resistant Gram-negative bacteria” (Nature Communications, 2020).
≈ marks a conversion by molar mass, not a printed value.

What was measured:
P. aeruginosa = assay: microbe, parasite or virus in culture; conditions: Pseudomonas aeruginosa, ATCC27853, read-out: MIC against P. aeruginosa (ATCC 27853), as stated for the pneumonia model
Outline: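 MICs were scored by eye after 18-20 h static incubation at 37 °C, with bacteria at 5 × 10^5 CFU mL^−1 in MHB. Peptides were serially diluted 2-fold over 12 points, top 128 or 64 μg mL^−1. CAMHB (CLSI) and 1% agarose-MHB variants were also run, at least six replicates.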

P. aeruginosa ATCC 27853 = assay: Murine pneumonia model, aerosolized treatment; assay type: in vivo, P. aeruginosa in CD1 mice; conditions: lung burden; Tobramycin 4.2mg/mL 20 min; group 9
Description: Peritonitis and UTI murine models were performed at the Department of Microbiology & Infection Control, Statens Serum Institute, Copenhagen, Denmark, under approval by the National Committee of Animal Ethics, Denmark, and adhered to the standards of EU Directive 2010/63/EU. The mouse pneumonia model was performed by Evotec Ltd, United Kingdom, under UK Home Office Licenses and with local ethical committee clearance. All animal studies were contracted by Adenium Biotech ApS.
Peptides were prepared in Ringer’s acetate pH 6.0 (vehicle) at 34 mg mL^−1. Comparator antibiotics included meropenem (Meronem®, AstraZeneca), polymyxin B sulfate (Sigma) and tobramycin (Novartis).
P. aeruginosa pneumonia in vivo model was prepared as follows: male CD1 mice were immunosuppressed with cyclophosphamide 200 mg kg^−1 on day −4 and 150 mg kg^−1 on day −1. […] Mouse weights were recorded once-daily following infection to ensure animals remained within ethical limits and to monitor efficacy of treatment. All mice remaining in the study at 34 h post infection were euthanized and the burden of P. aeruginosa in the lungs was determined. […] The lung homogenates were diluted appropriately then quantitatively cultured on to Pseudomonas-selective agar and incubated at 37 °C for 24 h before the number of colonies was counted. […]

## NC[C@H]1O[C@H](O[C@H]2[C@H](O)[C@@H](O[C@H]3O[C@H](CO)[C@@H](O)[C@H](N)[C@H]3O)[C@H](N)C[C@@H]2N)[C@H](N)C[C@@H]1O [tobramycin]
P. aeruginosa
  MIC: 0.5 to 2 µg/mL (≈ 1.07 to 4.28 µM)
P. aeruginosa ATCC 27853
  Log Group Geometric mean (CFU/g): 2.68 CFU/g
